Converted amounts (≈) assume the structure as drawn. The source made the active and inactive calls. No cut-off for these calls is given here.
Columns and labels:
Lysobacter enzymogenes [1] = experiment: Germicidal activity against Lysobacter enzymogenes YC36 at 5 to 10 pM; assay type: functional
Pseudomonas aeruginosa [2] = experiment: Antimicrobial activity against Pseudomonas aeruginosa ATCC 27853 assessed as inhibition of visible growth incubated for 18 hrs; assay type: functional
Pseudomonas aeruginosa [3] = experiment: Antimicrobial activity against Pseudomonas aeruginosa BAA 2108 assessed as inhibition of visible growth incubated for 18 hrs; assay type: functional
Enterococcus faecium [4] = experiment: Antimicrobial activity against Enterococcus […] ATCC 29212 assessed as inhibition of visible growth incubated for 18 hrs; assay type: functional
Enterobacter cloacae = experiment: Antimicrobial activity against Enterobacter cloacae BAA 1143 assessed as inhibition of visible growth incubated for 18 hrs; assay type: functional
Escherichia coli [5] = experiment: Antimicrobial activity against Escherichia coli ATCC 25923 assessed as inhibition of visible growth incubated for 18 hrs; assay type: functional
Bacillus subtilis [6] = experiment: Antimicrobial activity against Bacillus subtilis 168 assessed as inhibition of visible growth incubated for 18 hrs; assay type: functional
Klebsiella pneumoniae [7] = experiment: Antimicrobial activity against Klebsiella pneumoniae BAA 2470 assessed as inhibition of visible growth incubated for 18 hrs; assay type: functional
Acinetobacter baumannii [8] = experiment: Antimicrobial activity against Acinetobacter baumannii ATCC 19606 assessed as inhibition of visible growth incubated for 18 hrs; assay type: functional
Staphylococcus aureus [9] = experiment: Antimicrobial activity against Staphylococcus aureus BAA 44 assessed as inhibition of visible growth incubated for 18 hrs; assay type: functional
Escherichia coli [10] = experiment: Antimicrobial activity against Escherichia coli BAA 2469 assessed as inhibition of visible growth incubated for 18 hrs; assay type: functional
Klebsiella pneumoniae [11] = experiment: Antimicrobial activity against Klebsiella pneumoniae BAA 1144 assessed as inhibition of visible growth incubated for 18 hrs; assay type: functional
Escherichia coli [12] = experiment: Antimicrobial activity against Escherichia coli K-12 assessed as inhibition of visible growth incubated for 18 hrs; assay type: functional
Staphylococcus aureus [13] = experiment: Antimicrobial activity against Staphylococcus aureus ATCC 29213 assessed as inhibition of visible growth incubated for 18 hrs; assay type: functional
Staphylococcus aureus [14] = experiment: Antimicrobial activity against Staphylococcus aureus BAA 41 assessed as inhibition of visible growth incubated for 18 hrs; assay type: functional
L02 [15] = experiment: Cytotoxicity in human L02 cells assessed as reduction in cell viability at <32 ug/ml incubated for 48 hrs by resazurin dye based assay; settings: l02, 48 h
[16] = Stability in human plasma assessed as parent compound remaining at […] measured after 6 hrs by HPLC analysis; assay type: ADME, cell-free; settings: read-out: Stability
L02 [17] = experiment: Cytotoxicity in human L02 cells assessed as reduction in cell viability at >64 ug/ml incubated for 48 hrs by resazurin dye based assay; settings: l02, 48 h
Erythrocyte [18] = experiment: Toxicity in human erythrocytes assessed as induction of hemolysis at <50 ug/ml incubated for 1 hr by spectrometry; assay type: cell-based
[19] = Toxicity in human erythrocytes assessed as induction of hemolysis at 16 ug/ml incubated for 1 hr by spectrometry; assay type: cell-based, Erythrocyte; settings: read-out: Activity
[20] = Stability in human plasma assessed as parent compound remaining at […] measured after 2 hrs by HPLC analysis; assay type: ADME, cell-free; settings: read-out: Stability
Staphylococcus aureus [21] = experiment: Bactericidal activity against Staphylococcus aureus ATCC 29213; assay type: functional
Bacillus subtilis [22] = experiment: Bactericidal activity against Bacillus subtilis 168; assay type: functional
Lysobacter enzymogenes [23] = experiment: Antimicrobial activity against Lysobacter enzymogenes YC36 assessed as inhibition of visible growth incubated for 18 hrs; assay type: functional
Enterococcus faecium [24] = experiment: Bactericidal activity against Enterococcus […] ATCC 29212; assay type: functional
[25] = Bactericidal activity against Lysobacter enzymogenes YC36; assay type: functional
Escherichia coli [26] = experiment: Bactericidal activity against Escherichia coli K-12; assay type: functional
Erythrocyte [27] = experiment: Toxicity in human erythrocytes assessed as induction of hemolysis incubated for 1 hr by visual absorption spectroscopy; assay type: cell-based
Lysobacter enzymogenes [28] = experiment: Bactericidal activity against Lysobacter enzymogenes YC36 at 4 ug/ml; assay type: functional
Pseudomonas aeruginosa [29] = experiment: Bactericidal activity against Pseudomonas aeruginosa ATCC 27853; assay type: functional
Erythrocyte [30] = experiment: Toxicity in human erythrocytes assessed as induction of hemolysis incubated for 1 hr by spectrometry; assay type: cell-based
[31] = Stability in human plasma assessed as parent compound degradation at […] measured after 6 hrs by HPLC analysis; assay type: ADME, cell-free; settings: read-out: Drug degradation
Shigella flexneri = experiment: Bactericidal activity against Shigella flexneri ATCC 29903; assay type: functional
[32] = Antimicrobial activity against Lysobacter enzymogenes YC36 assessed as inhibition of visible growth measured after 7th generation exposure to compound by continuous repeated transfer assay relative to before passage; assay type: functional
Acinetobacter baumannii [33] = experiment: Bactericidal activity against Acinetobacter baumannii ATCC 19606; assay type: functional; settings: ATCC 19606 = CIP 70.34 = JCM 6841
Lysobacter enzymogenes [34] = experiment: Induction of drug efflux pumps gene expression in Lysobacter enzymogenes YC36 assessed as increase in czcB expression at 2 ug/ml by genome-wide transcription profiling assay; assay type: functional
Lipid bilayer = experiment: Induction of membrane lysis in LUVs composed of Escherichia coli lipid extract filled with 5-carboxyfluorescein incubated in dark for 20 mins by fluorescence based assay
Lysobacter enzymogenes [35] = experiment: Induction of drug efflux pumps gene expression in Lysobacter enzymogenes YC36 assessed as increase in ftsX expression at 2 ug/ml by genome-wide transcription profiling assay; assay type: functional
Lysobacter enzymogenes [36] = experiment: Bactericidal activity against Lysobacter enzymogenes YC36 at 2 ug/ml in presence of 5 pM QseC inhibitor LED209; assay type: functional
Lysobacter enzymogenes [37] = experiment: Bactericidal activity against Lysobacter enzymogenes YC36 with delta qseC mutant; assay type: functional
Lysobacter enzymogenes [38] = experiment: Induction of drug efflux pumps gene expression in Lysobacter enzymogenes YC36 assessed as increase in QseC expression at 2 ug/ml by genome-wide transcription profiling assay; assay type: functional
Lysobacter enzymogenes [39] = experiment: Induction of bacterial cell membrane leakage in Lysobacter enzymogenes YC36 assessed as induction of serious depressions with leakage of intracellular contents surrounding bacteria by atomic force microscopy; assay type: functional, cell-based
Lysobacter enzymogenes [40] = experiment: Induction of drug efflux pumps gene expression in Lysobacter enzymogenes YC36 assessed as increase in yceL expression at 2 ug/ml by genome-wide transcription profiling assay; assay type: functional
[41] = test system: Pseudoalteromonas antarctica; experiment: Bactericidal activity against Pseudoalteromonas antarctica at 2 ug/ml in presence of 5 pM QseC inhibitor LED209; assay type: functional, organism-based
Lysobacter enzymogenes [42] = experiment: Bactericidal activity against Lysobacter enzymogenes YC36 at 10 ug/ml; assay type: functional
Lysobacter enzymogenes [43] = experiment: Induction of drug efflux pumps gene expression in Lysobacter enzymogenes YC36 assessed as increase in QseB expression at 2 ug/ml by genome-wide transcription profiling assay; assay type: functional
[44] = test system: Stenotrophomonas maltophilia; experiment: Bactericidal activity against Stenotrophomonas maltophilia at 2 ug/ml in presence of 5 pM QseC inhibitor LED209; assay type: functional, organism-based
Lysobacter enzymogenes [45] = experiment: Induction of drug efflux pumps gene expression in Lysobacter enzymogenes YC36 with delta qseB mutant at 2 ug/ml by genome-wide transcription profiling assay; assay type: functional
Lysobacter enzymogenes [46] = experiment: Bactericidal activity against Lysobacter enzymogenes YC36 with delta qseB mutant; assay type: functional
Lysobacter enzymogenes [47] = experiment: Induction of drug efflux pumps gene expression in Lysobacter enzymogenes YC36 assessed as increase in nodT expression at 2 ug/ml by genome-wide transcription profiling assay; assay type: functional

Compound: O=S(=O)(Nc1ccccc1)c1ccc(NC(=S)Nc2ccccc2)cc1
- Activity (Lysobacter enzymogenes [1]): inactive

Compound: COLISTIN
- MIC (Pseudomonas aeruginosa [2]): 4 µg/mL
- MIC (Pseudomonas aeruginosa [3]): 4 µg/mL
- MIC (Enterococcus faecium [4]): > 128 µg/mL
- MIC (Enterobacter cloacae): 4 µg/mL
- MIC (Escherichia coli [5]): 2 µg/mL
- MIC (Bacillus subtilis [6]): 16 µg/mL
- MIC (Klebsiella pneumoniae [7]): 2 µg/mL
- MIC (Acinetobacter baumannii [8]; ATCC 19606 = CIP 70.34 = JCM 6841): 4 µg/mL
- MIC (Staphylococcus aureus [9]): > 128 µg/mL
- MIC (Escherichia coli [10]): 2 µg/mL
- MIC (Klebsiella pneumoniae [11]): 2 µg/mL
- MIC (Escherichia coli [12]): 2 µg/mL
- MIC (Staphylococcus aureus [13]): > 128 µg/mL
- MIC (Staphylococcus aureus [14]): > 128 µg/mL

Compound: CC[C@@H](C)[C@H]1NC(=O)CNC(=O)[C@@H](CCCNC(=N)N)NC(=O)[C@@H](Cc2ccc(O)cc2)NC(=O)[C@H]2CSSC[C@@H](NC1=O)C(=O)N[C@H](Cc1ccc(O)cc1)C(=O)N[C@H](CCCNC(=N)N)C(=O)N[C@H](CCCNC(=N)N)C(=O)N[C@@H](C(=O)N[C@H](CCCNC(=N)N)C(N)=O)CSSC[C@@H](NC(=O)[C@@H](Cc1c[nH]c3ccccc13)NC(=O)[C@H](N)CCCCN)C(=O)N[C@H](Cc1ccccc1)C(=O)N[C@H](CCCNC(=N)N)C(=O)N[C@H](C(C)C)C(=O)N2
- Activity (L02 [15]): Non-Toxic
- remaining at 6 h [16]: 20%
- Activity (L02 [17]): Toxic
- Activity (Erythrocyte [18]): Toxic
- hemolysis at 1 h, 16 ug/ml [19]: 10%
- remaining at 2 h [20]: > 80%

Compound: CC[C@H](C)[C@@H]1NC(=O)CNC(=O)[C@H](CCCNC(=N)N)NC(=O)[C@H](Cc2ccc(O)cc2)NC(=O)[C@@H]2CSSC[C@H](NC1=O)C(=O)N[C@@H](Cc1ccc(O)cc1)C(=O)N[C@@H](CCCNC(=N)N)C(=O)N[C@@H](CCCNC(=N)N)C(=O)N[C@H](C(=O)N[C@@H](CCCNC(=N)N)C(N)=O)CSSC[C@H](NC(=O)[C@H](Cc1c[nH]c3ccccc13)NC(=O)[C@@H](N)CCCCN)C(=O)N[C@@H](Cc1ccccc1)C(=O)N[C@@H](CCCNC(=N)N)C(=O)N[C@@H](C(C)C)C(=O)N2
- MBC (Staphylococcus aureus [21]): 16 to 64 µg/mL (≈ 7.07 to 28.3 µM)
- MIC (Pseudomonas aeruginosa [2]; ATCC 27853, 18 h): 4 to 8 µg/mL (≈ 1.77 to 3.53 µM)
- MBC (Bacillus subtilis [22]): 16 to 64 µg/mL (≈ 7.07 to 28.3 µM)
- MIC (Pseudomonas aeruginosa [3]; BAA 2108, 18 h): 8 µg/mL (≈ 3.53 µM)
- MIC (Enterococcus faecium [4]; ATCC 29212, 18 h): 8 µg/mL (≈ 3.53 µM)
- MIC (Enterobacter cloacae; BAA 1143, 18 h): 8 µg/mL (≈ 3.53 µM)
- MIC (Escherichia coli [5]; ATCC 25923, 18 h): 2 to 4 µg/mL (≈ 0.883 to 1.77 µM)
- MIC (Bacillus subtilis [6]; Bacillus subtilis, 168, 18 h): 4 µg/mL (≈ 1.77 µM)
- Activity (Lysobacter enzymogenes [23]): Dose-dependent effect
- MBC (Enterococcus faecium [24]): 16 to 64 µg/mL (≈ 7.07 to 28.3 µM)
- MBC [25]: 16 to 64 µg/mL (≈ 7.07 to 28.3 µM)
- MBC (Escherichia coli [26]): 16 to 64 µg/mL (≈ 7.07 to 28.3 µM)
- MIC (Klebsiella pneumoniae [7]; BAA 2470, 18 h): 16 µg/mL (≈ 7.07 µM)
- MIC (Acinetobacter baumannii [8]; ATCC 19606 = CIP 70.34 = JCM 6841, 18 h): 8 to 16 µg/mL (≈ 3.53 to 7.07 µM)
- MHC (Erythrocyte [27]): 0.25 µg/mL
- Activity (Lysobacter enzymogenes [28]): inactive
- Activity (L02 [15]): Non-Toxic
- MBC (Pseudomonas aeruginosa [29]): 16 to 64 µg/mL (≈ 7.07 to 28.3 µM)
- MIC (Staphylococcus aureus [9]; BAA 44, 18 h): 4 µg/mL (≈ 1.77 µM)
- Activity (Erythrocyte [30]): Dose-dependent effect
- metabolised at 6 h [31]: 100%
- MIC (Escherichia coli [10]; BAA 2469, 18 h): 8 µg/mL (≈ 3.53 µM)
- Activity (L02 [17]): Toxic
- MIC (Klebsiella pneumoniae [11]; BAA 1144, 18 h): 8 µg/mL (≈ 3.53 µM)
- MBC (Shigella flexneri): 16 to 64 µg/mL (≈ 7.07 to 28.3 µM)
- fold change (FC) [32]: 2
- Activity (Erythrocyte [18]): Toxic
- MIC (Escherichia coli [12]; K-12, 18 h): 4 µg/mL (≈ 1.77 µM)
- MIC (Staphylococcus aureus [13]; ATCC 29213, 18 h): 8 µg/mL (≈ 3.53 µM)
- MIC (Staphylococcus aureus [14]; BAA 41, 18 h): 4 µg/mL (≈ 1.77 µM)
- remaining at 2 h [20]: 20%
- MBC (Acinetobacter baumannii [33]): 16 to 64 µg/mL (≈ 7.07 to 28.3 µM)

Compound: CC[C@H](C)[C@H]1NC(=O)CNC(=O)[C@@H](CCCNC(=N)N)NC(=O)[C@@H](Cc2ccc(O)cc2)NC(=O)[C@H]2CSSC[C@@H](NC1=O)C(=O)N[C@H](Cc1ccc(O)cc1)C(=O)N[C@H](CCCNC(=N)N)C(=O)N[C@H](CCCNC(=N)N)C(=O)N[C@@H](C(=O)N[C@H](CCCNC(=N)N)C(N)=O)CSSC[C@@H](NC(=O)[C@@H](Cc1c[nH]c3ccccc13)NC(=O)[C@H](N)CCCCN)C(=O)N[C@H](Cc1ccccc1)C(=O)N[C@H](CCCNC(=N)N)C(=O)N[C@H](C(C)C)C(=O)N2
- Activity (Lysobacter enzymogenes [34]): Active
- Activity (Lipid bilayer): Dose-dependent effect
- Activity (Lysobacter enzymogenes [35]): Active
- Activity (Lysobacter enzymogenes [36]): Active
- Activity (Lysobacter enzymogenes [37]): Active
- Activity (Lysobacter enzymogenes [38]): Active
- Activity (Lysobacter enzymogenes [23]): Dose-dependent effect
- Activity (Lysobacter enzymogenes [28]): Active
- Activity (Lysobacter enzymogenes [39]): Active
- Activity (Lysobacter enzymogenes [40]): Active
- Activity [41]: Active
- Activity (Lysobacter enzymogenes [42]): inactive
- Activity (Lysobacter enzymogenes [43]): Active
- Activity [44]: Active
- Activity (Lysobacter enzymogenes [45]): inactive
- Activity (Lysobacter enzymogenes [46]): Active
- Activity (Lysobacter enzymogenes [47]): Active
